Data set [1] can be described thus: PNDA assay of •OH radicals from reaction with H2O2. Particulars: for Generation of ·OH radicals (in words): equimolar test compound with excess H2O2; for Concentration of •OH radical: 30 µM compound with excess H2O2. How it is done:
A previously reported spectrometric assay using PNDA was used to quantify the amount of reactive oxygen species (ROS), viz. •OH radicals, produced by the reaction of metal(II) complexes with hydrogen peroxide in borate buffer at pH 7.5 [24–26]. The percentage of PNDA bleaching and the concentration of •OH produced were determined.

Data set [2] has as its system Plasmodium falciparum 3D7 (Pf3D7). Description: In vitro anti-malarial activity using SYBR Green I nucleic acid dye. Type of data set: cell-based. As to conditions: read-out: IC50 of Pf3D7. How it is done:
(§1) The drug-sensitive strain of P. falciparum 3D7 (Pf3D7) was obtained from the Department of Science, Monash University, Malaysia and cultured as previously described. The artemisinin-resistant strain of P. falciparum IPC5202 (Pf5202) was obtained from BEI Resources and cultured as mentioned in the product sheet. Both strains were maintained in sealed flask at 37 °C in a humidified atmosphere of 5% O2, 5% CO2 and 90% N2. All buffer stock solutions for biological assays were autoclaved at 121 °C for 15 min.
(§2) Previously reported anti-malarial assay was used with slight modification using 1% parasitaemia (ring-stage) and 5% haematocrit treated with test compounds at increasing concentration and incubated for 72 h at 37 °C [21–23]. After the incubation, the assay was terminated by freeze/thaw cycle (− 80 °C overnight before thawing for 2 h) before the addition of lysis buffer containing SYBR Green I dye into each well and mixed thoroughly using the belly dancer for 30 min in the dark. Chloroquine diphosphate salt and artemisinin were used as standard drugs. The fluorescence signal was quantified at 485 nm excitation wavelength and 528 nm emission wavelength. IC50 values of each test compound was determined from a dose response curve by non-linear regression analysis.

Data set [3] relates to Plasmodium falciparum IPC5202 (Pf5202). The description is as above. As to conditions: for IC50: read-out: IC50 of Pf5202; for Drop in efficacy/potency towards Pf5202 relative to Pf3D7: ratio of IC50 values. The format is cell-based. How it is done:
as §1, §2

Data set [4] concerns B+ blood red blood cells (RBC). Description: In vitro haemolytic assay. The format is cell-based, human. Particulars: 1 µM; 72 h; B+ blood. How it is done: Fresh B+ blood was washed with RPMI1640 medium containing of 30 µg/mL gentamicin (Gibco) and centrifuged at 1000 xg for 10 min three times. The percentage of haemolysis was determined spectroscopically using 5% haematocrit containing test compound at increasing concentration and incubated for 72 h at 37 °C [19, 20]. Untreated blood acted as negative control while blood treated with sterile distilled water acted as positive control (for 100% haemolysis).

Another data set relates to Pf3D7. Description: Intracellular ROS level using DCFH-DA. Type of data set: cell-based, Plasmodium falciparum. Particulars: positive control. How it is done: (§3) After incubation, packed cells were washed with phosphate buffer saline (PBS) solution. […] The data was expressed as fold change between amount of ROS produced by treated P. falciparum against untreated P. falciparum. Normalization was done with the percentage of parasite viability obtained at each condition. Hydrogen peroxide was used as positive control.

The test system of another data set is Pf5202. Description: Intracellular ROS level using DCFH-DA. Type of data set: cell-based, Plasmodium falciparum. As to conditions: positive control. How it is done: as §3
Where [5] appears, read: Plasmodium falciparum, 3D7, 72 h incubation.
The mark [6] stands for this setting: Plasmodium falciparum, 72 h incubation.
The mark [7] stands for this setting: 72 h incubation, listed as copper(II) nitrate.

We go through six molecules from article PMC9758846, “Dinuclear and mononuclear metal(II) polypyridyl complexes against drug-sensitive and drug-resistant Plasmodium falciparum and their mode of action” (Malaria Journal, 2022).

Where a name gives a salt, the structure may show the parent alone. Read-outs that look alike come from different tables or passages of the source. Some results are limits rather than exact numbers.

For `c1cc(-c2ccncc2)ccn1` [4,4′-bipy, 4,4′-bipyridine], in data set [1], the “Generation of ·OH radicals (in words)” value is “did not generate any ·OH radicals”. For the same molecule, the IC50 in data set [2] (setting [5]) and in data set [3] (setting [6]) was over 100 µM throughout.

As to `C[C@@H]1CC[C@H]2[C@@H](C)C(=O)O[C@@H]3O[C@@]4(C)CC[C@@H]1[C@]32OO4` [ART, Artemisinin], the results for the IC50 in data set [2] (setting [5]) and in data set [3] (setting [6]) were 0.04 ± 0.01 µM and over 100 µM, respectively. Further, the “Drop in efficacy/potency towards Pf5202 relative to Pf3D7” value in data set [3] was “more than 3000 ×”.

For the molecule `O.O.O.O=[N+]([O-])[O-].O=[N+]([O-])[O-].[Cu+2]` [Cu(NO3)2·3H2O, Copper(II) nitrate trihydrate, reference compound], the “Percentage of haemolysis (haemolytic index, HI)” value in data set [4] came to 3%. In addition, the “Concentration of •OH radical” value is recorded as 14.59 ± 2.39 µM in data set [1] (2 h); 19.27 ± 2.36 µM in data set [1] (4 h); 36.29 ± 1.80 µM in data set [1] (24 h); 33.20 ± 1.62 µM in data set [1] (48 h); 29.82 ± 1.60 µM in data set [1] (72 h). Further, the IC50 was about 46 µM in data set [2] (setting [7]), 46.1 ± 4.29 µM in data set [2] (72 h incubation), about 49 µM in data set [3] (setting [7]) and 49.4 ± 2.3 µM in data set [3] (72 h incubation).

Regarding `CCN(CC)CCCC(C)Nc1ccnc2cc(Cl)ccc12` (stereo not shown) [CQ, Chloroquine diphosphate salt], the half-inhibitory concentration (IC50) in data set [2] (Plasmodium falciparum, 3D7, 72 h) is 0.03 ± 0.01 µM; in data set [3] (Plasmodium falciparum, 72 h), over 100 µM. The “Drop in efficacy/potency towards Pf5202 relative to Pf3D7” value in data set [3] was “more than 3000 ×”.

On to `OO` [Complex H2O2, Hydrogen peroxide, reference compound], for which the “fold change in ROS” value was found to be 0.90 ± 0.37 fold with Pf3D7 (24 h, 8 µM); 1.34 ± 0.67 fold in the data set with Pf3D7 (24 h, 40 µM); 1.28 ± 0.62 fold in the data set with Pf3D7 (24 h, 200 µM); 1.77 ± 0.85 fold in the data set on Pf3D7 (24 h, 1000 µM); 2.97 ± 0.57 fold with Pf3D7 (48 h, 8 µM); 3.55 ± 0.9 fold in the data set on Pf3D7 (48 h, 40 µM). For the same molecule, the “fold change in ROS” value was 4.61 ± 0.15 fold with Pf3D7 (48 h, 200 µM); 5.75 ± 0.76 fold in the data set with Pf3D7 (48 h, 1000 µM); 0.25 ± 0.08 fold in the data set on Pf3D7 (72 h, 8 µM); 0.34 ± 0.12 fold in the data set on Pf3D7 (72 h, 40 µM); 0.49 ± 0.22 fold with Pf3D7 (72 h, 200 µM); 1.00 ± 0.06 fold with Pf3D7 (72 h, 1000 µM). Also, the “fold change in ROS” value in the data set on Pf5202 (24 h, 8 µM) was determined as 1.10 ± 0.04 fold; in the data set on Pf5202 (24 h, 40 µM) it was 1.16 ± 0.13 fold; in the data set with Pf5202 (24 h, 200 µM), 1.08 ± 0.18 fold; in the data set with Pf5202 (24 h, 1000 µM), 1.15 ± 0.22 fold; in the data set on Pf5202 (48 h, 8 µM), 1.78 ± 0.16 fold; in the data set on Pf5202 (48 h, 40 µM), 1.54 ± 0.28 fold. For the same molecule, the “fold change in ROS” value was 1.41 ± 0.16 fold with Pf5202 (48 h, 200 µM); 1.68 ± 0.28 fold in the data set on Pf5202 (48 h, 1000 µM); 1.82 ± 0.15 fold in the data set with Pf5202 (72 h, 8 µM); 1.17 ± 0.36 fold in the data set with Pf5202 (72 h, 40 µM); 2.06 ± 0.25 fold in the data set on Pf5202 (72 h, 200 µM); 3.71 ± 0.14 fold in the data set with Pf5202 (72 h, 1000 µM).

On to `O.O.O.O.O.O.O=[N+]([O-])[O-].O=[N+]([O-])[O-].[Zn+2]` [Zn(NO3)2·6H2O, Zinc(II) nitrate hexahydrate], for which the “Generation of ·OH radicals (in words)” value in data set [1] is on record as “did not generate any ·OH radicals”. Besides, the IC50 in data set [2] (72 h incubation) and in data set [3] (72 h incubation) was over 100 µM in each case.

For orientation: IC50 means the midpoint of a concentration-inhibition curve.
